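Interpolation was linear, between the two tested concentrations surrounding the appropriate level; five concentrations were tested over 48 hours in 96-well plates. TGI marks complete inhibition of growth.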

Among the test systems are CCRF-CEM leukemia; A549 NSCLC; MDA-MB-435; MOLT-4 leukemia; PC-3 prostate; CAKI-1 renal; K-562 leukemia; UO-31 renal; EKVX NSCLC; MCF7 breast.
Holding throughout (test): NCI-60 cell line screen, 48 h

Take `CCCCCCCCC/C=C1\CC(CO)(COC(=O)c2ccccc2)OC1=O` (centres undefined): the TGI with CCRF-CEM leukemia is above 100 µM; in the assay on A549 NSCLC, 52.9 µM; in the assay with MDA-MB-435, 36.3 µM; in the assay with MOLT-4 leukemia it was above 100 µM; in the assay on PC-3 prostate, 34.7 µM; in the assay on CAKI-1 renal, 52.5 µM. For the same compound, the TGI in the assay with K-562 leukemia was above 100 µM; in the assay on UO-31 renal, 32.8 µM; in the assay with EKVX NSCLC, 34 µM; with MCF7 breast, 48.9 µM.
`NCCCCNC1(c2cc3ccccc3s2)CCCCC1`: the TGI stood at 5.44 µM in the assay with CCRF-CEM leukemia; 20.5 µM in the assay with A549 NSCLC; 3.49 µM in the assay with MDA-MB-435; 8.37 µM in the assay on MOLT-4 leukemia; 17.3 µM in the assay on PC-3 prostate; 28.1 µM in the assay on CAKI-1 renal. The TGI in the assay on K-562 leukemia was found to be 3.56 µM; in the assay with UO-31 renal, 9.94 µM; in the assay on EKVX NSCLC it was 29.1 µM; in the assay on MCF7 breast, 9.75 µM.
For `CC(=O)NC1=C(C)C(=O)c2c(nc3n2CC[C@H]3OC(C)=O)C1=O`, the TGI with CCRF-CEM leukemia is above 100 µM; in the assay with A549 NSCLC it was 24.8 µM; in the assay on MDA-MB-435, 1.85 µM; in the assay with PC-3 prostate, 1.99 µM; in the assay with CAKI-1 renal, 8.22 µM; in the assay with K-562 leukemia it was above 100 µM. Also, the values for the TGI with UO-31 renal, in the assay on EKVX NSCLC and in the assay on MCF7 breast were 6.78 µM, 17.5 µM and 3.37 µM, respectively.
As to `Cc1cc([N+](=O)[O-])ccc1N=NC(=O)NNc1ccc([N+](=O)[O-])cc1C`, the TGI with CCRF-CEM leukemia came out at 41.7 µM; in the assay with A549 NSCLC, 31.5 µM; in the assay with MDA-MB-435, 28.4 µM; in the assay on MOLT-4 leukemia, 37.5 µM; in the assay on PC-3 prostate it was 26.6 µM; with CAKI-1 renal, 29.3 µM. For the same compound, the TGI in the assay with K-562 leukemia was found to be 39.9 µM; in the assay on UO-31 renal, 25.2 µM; with MCF7 breast, 20.5 µM.
As for `C[C@H](CCC1=NCCN1)[C@H]1CC[C@H]2[C@@H]3CC[C@@H]4C[C@H](O)CC[C@]4(C)[C@H]3C[C@H](O)[C@]12C`, the TGI in the assay with CCRF-CEM leukemia came out at 30.4 µM; in the assay with MDA-MB-435, 28.9 µM; in the assay with MOLT-4 leukemia, 16.1 µM; with PC-3 prostate, 20.7 µM; in the assay on CAKI-1 renal it was 43.8 µM; with K-562 leukemia, 21 µM. In addition, the results for the TGI in the assay with UO-31 renal, in the assay with EKVX NSCLC and in the assay on MCF7 breast were 52.6 µM, 34.4 µM and 28.5 µM, respectively.
Consider `Nc1nc2cc(CNc3ccc(C(=O)NC(CCC(=O)O)C(=O)O)cc3)ccc2nc1-c1ccccc1` (centres undefined), for which the TGI in the assay on CCRF-CEM leukemia, in the assay on A549 NSCLC, with MDA-MB-435, in the assay on MOLT-4 leukemia, in the assay with PC-3 prostate and in the assay on CAKI-1 renal was above 10 µM throughout. Also, the TGI with K-562 leukemia, in the assay with UO-31 renal, with EKVX NSCLC and in the assay on MCF7 breast was above 10 µM in each case.
`CC[C@@H]1CC[C@@H]2[C@H](CC[C@]3(C)[C@@H](OS(=O)(=O)c4ccc(C)cc4)CC[C@@H]23)[C@H]1CO`: the TGI in the assay on CCRF-CEM leukemia, in the assay on A549 NSCLC, with MDA-MB-435, with MOLT-4 leukemia, with PC-3 prostate and in the assay on CAKI-1 renal was above 100 µM throughout. Also, the TGI is above 100 µM in the assay on K-562 leukemia, 52.5 µM in the assay with UO-31 renal, above 100 µM with EKVX NSCLC and above 100 µM with MCF7 breast.
Regarding `O=C(O)/C=C/C(=O)O`, the TGI with CCRF-CEM leukemia, in the assay with A549 NSCLC, with MDA-MB-435, in the assay with MOLT-4 leukemia, with PC-3 prostate and in the assay with CAKI-1 renal was above 100 µM in each case. For the same compound, the TGI in the assay with K-562 leukemia, with UO-31 renal, in the assay with EKVX NSCLC and with MCF7 breast was above 100 µM in each case.
Consider `O=c1[nH]c2ccccc2c2oc(-c3ccccc3)nc12`, for which the TGI is 52.6 µM in the assay with CCRF-CEM leukemia; above 100 µM in the assay with A549 NSCLC; 38 µM in the assay on MDA-MB-435; 87.8 µM in the assay with MOLT-4 leukemia; above 100 µM with PC-3 prostate; 34.4 µM with CAKI-1 renal. The TGI in the assay with K-562 leukemia, in the assay on UO-31 renal, in the assay with EKVX NSCLC and in the assay on MCF7 breast was above 100 µM in each case.
As for `NC(=O)NCCCC(NC(=O)OCCCCCn1ccc(=O)[nH]c1=O)C(=O)O` (centres undefined), the TGI in the assay on CCRF-CEM leukemia, in the assay on A549 NSCLC, in the assay with MDA-MB-435, with MOLT-4 leukemia, in the assay on PC-3 prostate and in the assay on CAKI-1 renal was above 100 µM in each case. For the same compound, the TGI in the assay on K-562 leukemia, in the assay on UO-31 renal, in the assay with EKVX NSCLC and in the assay on MCF7 breast was above 100 µM in each case.
For the compound `CCOC(=O)C(=Cn1c(=S)[nH]c2ccc([N+](=O)[O-])cc21)C(=O)OCC`, the TGI with CCRF-CEM leukemia, in the assay on A549 NSCLC, in the assay on MDA-MB-435, in the assay on MOLT-4 leukemia, in the assay on PC-3 prostate and in the assay with CAKI-1 renal was above 100 µM in each case. For the same compound, the TGI in the assay on K-562 leukemia, in the assay on UO-31 renal, in the assay on EKVX NSCLC and with MCF7 breast was above 100 µM in each case.
Regarding `O=C(NN1C(=O)C=CC1=O)c1ccccc1Nc1ccccc1C(=O)NN1C(=O)C=CC1=O`, the TGI in the assay on CCRF-CEM leukemia, with MDA-MB-435, in the assay with MOLT-4 leukemia, in the assay with PC-3 prostate, in the assay on CAKI-1 renal and in the assay with K-562 leukemia was above 100 µM each time. In addition, the TGI with UO-31 renal, in the assay on EKVX NSCLC and with MCF7 breast was above 100 µM throughout.
Consider `O=C1/C(=C/c2ccco2)NC(=S)N1CN1CCOCC1`, for which the TGI in the assay with CCRF-CEM leukemia, in the assay on A549 NSCLC, in the assay on MDA-MB-435, in the assay on MOLT-4 leukemia, in the assay on PC-3 prostate and with K-562 leukemia was above 100 µM throughout. In addition, the TGI with UO-31 renal, in the assay with EKVX NSCLC and in the assay with MCF7 breast was above 100 µM each time.
On to `C#CCOC(=O)C(N)CCCN=C(N)N` (centres undefined), for which the TGI with CCRF-CEM leukemia, with A549 NSCLC, in the assay on MDA-MB-435, in the assay with MOLT-4 leukemia, in the assay with PC-3 prostate and in the assay with CAKI-1 renal was above 100 µM in each case. The TGI in the assay on UO-31 renal, in the assay on EKVX NSCLC and in the assay on MCF7 breast was above 100 µM each time.

For the origin of these results see PubChem BioAssay (NCI).
